Data from paper PMC9320886, “Daily Intraperitoneal Administration of Rosiglitazone Does Not Improve Lung Function or Alveolarization in Preterm Rabbits Exposed to Hyperoxia” (Pharmaceutics, 2022).
Like-named read-outs stand apart in the source and are kept apart here.

Assays:
[1] = Caco-2 permeability assay; type: in vitro ADME; conditions: human, basolateral to apical
[2] = Caco-2 permeability assay; type: in vitro ADME; conditions: human, apical to basolateral
Method: Caco-2 cells were purchased from ReadyCell (Barcelona, Spain). The cells arrived already seeded and differentiated (21-days) in 96-well plates (CacoReady 96-well kits, ReadyCell). Cells were maintained in a cell culture medium: Dulbecco’s modified Eagle’s medium (DMEM) 1 g/L glucose containing 10% fetal bovine serum, 1% L-glutamine 200 mM, and 1% penicillin (10,000 U/mL)–streptomycin (10 mg/mL), all from Merck KGaA. The buffer used in the assay was Hanks Balanced Salt Solution (HBSS, Merck). Control compounds were: sulpiride (low permeability control), metoprolol (high permeability control), talinolol (P-glycoprotein transport (Pgp) substrate control), and GF120918 (Elacridar, Pgp inhibitor), all purchased from Merck KGaA.
The day of the experiment, the integrity of the cell monolayers was assessed before and after the assay by measuring the transepithelial electrical resistance (TEER). The permeability of the compounds across the cell monolayer was determined by measuring their transport in both directions: apical to basolateral (A → B) and basolateral to apical (B → A) in the absence and presence of Elacridar (a known P-gp inhibitor). The donor working solution was prepared by dilution of the DMSO stock of the test compound or positive control with HBSS (pH 7.4) to 10 µM. For A → B directional transport, the donor working solution (with test compound or positive control, with or without P-gp inhibitor) was added to the apical (A) and HBSS was added to the basolateral (B) compartment. For B → A directional transport, the donor working solution (with positive control or test compound […], with or without P-gp inhibitor) was added to the basolateral (B) and HBSS was added to the apical (A) compartment. The assay was performed with a Hamilton Star Lab robotic system. Samples were collected at t0 and 2 h after incubation (5% CO2, 95% relative humidity, 37 °C) for LC-MS/MS analyses.
Apparent permeability (Papp) was calculated with the following equation: (5) Papp(cm/sec)=(Vr/C0)×(1/A)×(Cr(t)/t) where Vr is the volume of the solution in the receiving compartment (mL); C0 is the initial test compound concentration in the donor compartment (expressed as area ratio); A is the membrane surface area (0.14 cm^2); Cr (t) is the measured concentration of the receiver well at time t120 (expressed as area ratio); and t is time of incubation (sec).

[3] = system: newborn rats; parameters: method as in PMID 19262292; conditions: single (24 h) and repeated (7 days) administration, 0.1–8 mg/kg; cited from earlier work
[4] = pharmacokinetic profiling in preterm rabbits; type: in vivo, rabbit
[5] = system: patients with type 2 diabetes; conditions: cited from earlier work
[6] = rabbit, inhaled or intranasal, lung, intratracheal 1 mg/kg

Question: For CN(CCOc1ccc(CC2SC(=O)NC2=O)cc1)c1ccccn1 (stereo not shown) [RGZ, rosiglitazone], which Papp B→A at 2 h, 10 µM ([1]; Caco-2, pH 7.4, with Elacridar (GF120918), concentration not given, with Elacridar, read-out: Papp with Pgp Inhibitor (B–A) (converted)) is on record?
Answer: The Papp B→A at 2 h, 10 µM was 11.4 ×10⁻⁶ cm/s.

Question: What about the Papp B→A at 2 h, 10 µM ([1]; Caco-2, pH 7.4, 2 h, without Pgp inhibitor, read-out: Papp (B–A) (converted)) of the same compound?
Answer: The Papp B→A at 2 h, 10 µM was 10 ×10⁻⁶ cm/s.

Question: And the Papp A→B at 2 h, 10 µM ([2]; Caco-2, pH 7.4, with Elacridar (GF120918), concentration not given, with Elacridar, read-out: Papp with Pgp Inhibitor (A–B))?
Answer: The Papp A→B at 2 h, 10 µM was 16.3 ×10⁻⁶ cm/s.

Question: And the Papp A→B at 2 h, 10 µM ([2]; Caco-2, pH 7.4, 10 µM, 2 h, without Pgp inhibitor, read-out: Papp (A–B))?
Answer: The Papp A→B at 2 h, 10 µM was 14.5 ×10⁻⁶ cm/s.

Question: What about the “serum cholesterol and triglycerides levels” value [3] of the same compound?
Answer: The value was “remained unchanged”.

Question: What about the “detectability in plasma and lung” value ([4]; intratracheal or intraperitoneal 1 mg/kg) of the same compound?
Answer: The value was “detectable levels in both compartments up to 24 h”.

Question: What about the time of peak ([4]; plasma and lung tissue, irrespective of the administration method, 1 mg/kg) of the same compound?
Answer: Its time of peak is 0.25 h.

Question: And the Cmax [4, 6]?
Answer: Its Cmax is 1070 ng/g.

Question: What about the Tmax [4, 6] of the same compound?
Answer: Its Tmax is 15 min.

Question: What about the half-life ([4]; rabbit, inhaled or intranasal, plasma, intratracheal 1 mg/kg) of the same compound?
Answer: Its half-life is 900 min.

Question: And the Tmax ([4]; rabbit, ip, lung, intraperitoneal 1 mg/kg)?
Answer: Its Tmax is 15 min.

Question: What about the AUC(0-t) ([4]; rabbit, ip, plasma, intraperitoneal 1 mg/kg) of the same compound?
Answer: The AUC(0-t) was 29500 ng·h/mL.

Question: What about the Kp ([4]; rabbit, lung and plasma, inhaled or intranasal, intratracheal 1 mg/kg, read-out: AUCLung/AUCPlasma) of the same compound?
Answer: The Kp was 0.7.

Question: And the concentration at 24 h ([4]; rabbit, plasma and lung, ip, 24 h after intraperitoneal administration, 1 mg/kg, read-out: levels in plasma and lung)?
Answer: Its concentration at 24 h is > 500 ng/mL.

Question: What about the “plasma triglycerides, large- and medium-sized lipoproteins, low- and high-density cholesterol” value ([5]; adult patients with type 2 diabetes and dyslipidemia) of the same compound?
Answer: The value was “increases”.

Question: And the “risk of heart failure and cardiovascular mortality” value ([5]; diabetic patients)?
Answer: Its value is “increases the risk”.
